Values quoted from earlier work in US6632827B2 (Sepracor Inc., priority 1996, dated 2003).

Tests used:
[1] = co-administered ketoconazole
[2] = molecular target: T1, 5HT4 receptors (Mus musculus, UniProt P97288); conditions: cultured mouse embryo colliculi neurons; read-out: EC50 concentration, cAMP generation as endpoint for 5HT4 activity
T1 construct: Using cultured mouse embryo colliculi neurons and cAMP generation as an endpoint for designating 5HT4 activity; host or cells: cultured mouse embryo colliculi neurons

[3] = test system: beta-adrenergic; conditions: S-enantiomer vs R-enantiomer

T1 sequence (P97288 whole entry): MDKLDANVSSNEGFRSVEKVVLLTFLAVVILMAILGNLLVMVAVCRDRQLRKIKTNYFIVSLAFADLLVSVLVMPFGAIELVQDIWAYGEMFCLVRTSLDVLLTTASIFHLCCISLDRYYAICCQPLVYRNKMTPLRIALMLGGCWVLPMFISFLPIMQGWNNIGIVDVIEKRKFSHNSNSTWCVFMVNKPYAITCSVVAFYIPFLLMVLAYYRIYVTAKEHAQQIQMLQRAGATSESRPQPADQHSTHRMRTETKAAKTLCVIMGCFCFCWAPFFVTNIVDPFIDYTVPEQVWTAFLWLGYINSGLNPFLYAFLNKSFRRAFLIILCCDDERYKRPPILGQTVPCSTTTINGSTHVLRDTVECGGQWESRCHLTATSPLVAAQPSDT

COc1cc(N)c(Cl)cc1C(=O)N[C@H]1CCN(CCCOc2ccc(F)cc2)C[C@H]1OC (racemic) [(±) Cisapride, cis-4-amino-5-chloro-N-[1-[3-(4-fluorophenoxy)propyl]-3-methoxy-4-piperidinyl]-2-methoxybenzamide]
Increase in steady-state plasma levels [1]: 8 fold
Bioavailability of the parent compound (oral administration to humans): 40-50%
Fraction of dose metabolized (oxidative N-dealkylation or aromatic hydroxylation): More than 90%
EC50 [2]: 70 nM

COc1cc(N)c(Cl)cc1C(=O)NC1CCNCC1OC (racemic) [(±) Norcisapride, 4-amino-5-chloro-N-(3-methoxy-4-piperidinyl)-2 methoxybenzamide]
Share of the drug found in urine (urine of humans 72 hours after dosing of cisapride): 50-80%

CC(C)NCC(O)COc1cccc2ccccc12 (stereo not drawn) [propranolol]
Potency of S-enantiomer relative to R-enantiomer [3]: 100 times
